The values below come from US4468403A, “Analgesic substituted piperidylidene-2-sulfon(cyan)amide derivatives” (priority 1982, dated 1984).

Entries after “also recorded” stand apart in the source; their conditions may differ. Read-outs that look alike come from different tables or passages of the source.

The format of assay [1] is in vivo, male Swiss albino mice. To be noted: for % Inhibn, control (single agent) in antagonist study: alone; for Analgesic action, inhibition action on phenylquinone writhing: dose giving 50 % inhibition / Analgesic action, inhibition action on phenylquinone writhing, % inhibition: subcutaneous; for Analgesic action, inhibition action on phenylquinone writhing: dose giving 50 % inhibition: 30 min before phenyl-p-benzoquinone, dose with 50 % inhibition; for Analgesic (agonist) activity, in words: phenylquinone writhing, mice. The method, then:
(§1) The percent change is calculated according to the following equation: % change=100- (no. of writhes in treated group/no. of writhes in control group)×100.

Assay [2] in a line: Analgesic antagonist testing against morphine sulfate (phenylquinone writhing). Format: in vivo, male Swiss albino mice. As for the experimental part:
as §1

The nature of assay [3]: Analgesic antagonist testing against analgesic agonists of the W-1 to W-19 and 0-1 to 0-3 series, e.g. W-3 (phenylquinone writhing). Format: in vivo, male Swiss albino mice. The method, then:
as §1
A general note: In writhing tests, fewer writhes than in controls are read as antinociception.

Setting [4] is: at the dose listed for the substance under E1.

For `O=S(=O)(N=C1CCCCN1CC1CC1)c1ccc(Cl)cc1` [Compound W-20, 1-Cyclopropylmethylpiperidylidene-2-(4-chlorophenyl)sulfonamide], the “% Inhibn, control (single agent) in antagonist study” value (from here on “% Inhibn, control (single agent)”) is 36% in assay [1] (0.5 mg/kg sc), 46% in assay [1] (2.0 mg/kg sc) and 69% in assay [1] (10.0 mg/kg sc). Moreover, in assay [1], the “Analgesic action, inhibition action on phenylquinone writhing: dose giving 50 % inhibition” value (“Analgesic action … dose giving 50 % inhibition” for short) worked out at 2300 µg/kg. Moreover, the “Analgesic action, inhibition action on phenylquinone writhing, % inhibition” value in assay [1] (setting [4]) stood at 50%. For the same compound, the “Antagonist activities, % inhibition of writhing with antagonist + agonist” value in assay [2] (Expt. 1: W-20 (2.0 mg/kg sc) 10 min before MS (0.2 mg/kg sc)) is recorded as 55%; in assay [2] (Expt. 2: W-20 (10.0 mg/kg sc) 10 min before MS (0.2 mg/kg sc)) it was 66%; in assay [3] (Expt. 3: W-20 (0.5 mg/kg sc) 10 min before W-3 (2.0 mg/kg sc)) it was 53%; in assay [3] (Expt. 4: W-20 (2.0 mg/kg sc) 10 min before W-3 (2.0 mg/kg sc)), 49%. Also, the “Block of agonist analgesic effect, in words” value is on record as “near complete block” in assay [2] (W-20 (2.0 mg/kg sc) vs MS (0.2 mg/kg sc)), “complete block; also recorded: completely blocks” in assay [2] (W-20 (10.0 mg/kg sc) vs MS (0.2 mg/kg sc)), “partial block” in assay [3] (W-20 (0.5 mg/kg sc) vs W-3 (2.0 mg/kg sc)) and “complete block; also recorded: completely blocks” in assay [3] (W-20 (2.0 mg/kg sc) vs W-3 (2.0 mg/kg sc)).

Turning to `C=CCN1CC[C@]23c4c5ccc(O)c4O[C@H]2C(=O)CC[C@@]3(O)[C@H]1C5` [Naloxone, reference compound], the “Antagonist activities, % inhibition of writhing with antagonist + agonist” value in assay [3] (Expt. 5: Naloxone (1.0 mg/kg sc) before W-3 (5.0 mg/kg sc)) is 45%. Besides, the “Block of agonist analgesic effect, in words” value in assay [3] (Naloxone (1.0 mg/kg sc) vs W-3 (5.0 mg/kg sc)) is reported as “partial block; also recorded: partially blocks”. Further, the “Antagonist activity, in words” value in assay [3] (toward W-3, dose not given) is given as “acted as an antagonist toward W-3”.

Regarding `CN1CCCCC1=NS(=O)(=O)c1ccc([N+](=O)[O-])cc1` [Compound W-6, 1-Methylpiperidylidene-2-(4-nitrophenyl)sulfonamide], in assay [1], the “Analgesic (agonist) activity, in words” value is “active analgesics, being comparable to morphine sulfate” and the “Analgesic action … dose giving 50 % inhibition” value is 2.8 µg/kg. Moreover, in assay [1] (setting [4]), the “Analgesic action, inhibition action on phenylquinone writhing, % inhibition” value came to 50%.

For `Nc1ccc(CCN2CCCCC2=NS(=O)(=O)c2ccc(Cl)cc2)cc1` [Compound W-19, 1-(4-Aminophenylethyl)piperidylidene-2-(4-chlorophenyl)sulfonamide], the “Analgesic action, inhibition action on phenylquinone writhing, % inhibition” value in assay [1] (setting [4]) was determined as 50%.

Regarding `O=S(=O)(N=C1CCCCN1CC1CC1)c1cccnc1` [Compound W-22, 1-Cyclopropylmethylpiperidylidene-2-(3-pyridyl)sulfonamide], the “Analgesic action … dose giving 50 % inhibition” value in assay [1] turned out to be 2000 µg/kg. In assay [1] (dose 2.0 mg/kg (Table 3)), the “Analgesic action, inhibition action on phenylquinone writhing, % inhibition” value is 50%.

Regarding `CN1CCCCC1=NS(=O)(=O)c1cccnc1` [Compound W-14, 1-Methylpiperidylidene-2-(3-pyridyl)sulfonamide], in assay [1], the “Analgesic (agonist) activity, in words” value was “active analgesics, being comparable to morphine sulfate” and the “Analgesic action … dose giving 50 % inhibition” value worked out at 0.38 µg/kg. In addition, the “Analgesic action, inhibition action on phenylquinone writhing, % inhibition” value in assay [1] (setting [4]) worked out at 50%.

`O=S(=O)(N=C1CCCCN1CC1CCC1)c1ccc(Cl)cc1` [Compound W-23, 1-Cyclobutylmethylpiperidylidene-2-(4-chlorophenyl)sulfonamide]: in assay [1], the “Analgesic action … dose giving 50 % inhibition” value worked out at 10 µg/kg. Also, the “Analgesic action, inhibition action on phenylquinone writhing, % inhibition” value in assay [1] (setting [4]) is given as 50%.

Regarding `CN1CCCCC1=NS(=O)(=O)c1ccc(Cl)cc1` [Compound W-3, 1-Methylpiperidylidene-2-(4-chlorophenyl)sulfonamide], the “% Inhibn, control (single agent)” value in assay [1] (2.0 mg/kg sc) came out at 97%. In addition, the “% Inhibn, control (single agent)” value in assay [1] (5.0 mg/kg sc) was 100%. Besides, in assay [1], the “Analgesic (agonist) activity, in words” value is on record as “active analgesics, being comparable to morphine sulfate” and the “Analgesic action … dose giving 50 % inhibition” value worked out at 3.8 µg/kg. In assay [1] (setting [4]), the “Analgesic action, inhibition action on phenylquinone writhing, % inhibition” value worked out at 50%.

Turning to `CN1CCCCC1=NS(=O)(=O)c1cccc(N)c1` [Compound W-10, 1-Methylpiperidylidene-2-(3-aminophenyl)sulfonamide], in assay [1], the “Analgesic (agonist) activity, in words” value is “active analgesics, being comparable to morphine sulfate” and the “Analgesic action … dose giving 50 % inhibition” value was 1.7 µg/kg. Moreover, the “Analgesic action, inhibition action on phenylquinone writhing, % inhibition” value in assay [1] (setting [4]) was 50%.

Consider `CC(C)CN1CCCCC1=NS(=O)(=O)c1ccc(N)cc1` [Compound W-30, 1-Isobutylpiperidylidene-2-(4-aminophenyl)sulfonamide], for which the “Analgesic action, inhibition action on phenylquinone writhing, % inhibition” value in assay [1] (dose 2.0 mg/kg (Table 3)) is reported as 59%.

For `O=S(=O)(N=C1CCCCN1CCc1ccccc1)c1cccnc1` [Compound W-17, 1-Phenylethylpiperidylidene-2-(3-pyridyl)sulfonamide], the “Analgesic (agonist) activity, in words” value in assay [1] is “active analgesics, being comparable to morphine sulfate”. Also, the “Analgesic action, inhibition action on phenylquinone writhing, % inhibition” value in assay [1] (dose 0.20 mg/kg) amounted to 65%.

For `O=S(=O)(N=C1CCCCN1CC1CCC1)c1cccnc1` [Compound W-25, 1-Cyclobutylmethylpiperidylidene-2-(3-pyridyl)sulfonamide], the “Analgesic action, inhibition action on phenylquinone writhing, % inhibition” value in assay [1] (dose 0.20 mg/kg) amounted to 69%.
